Results from PubChem BioAssay AID766 (NMMLSC, 2007).

Target: N-formyl peptide receptor 2 (Homo sapiens) (UniProt P25090)
Experiment: FPRL1 fluorescent ligand binding inhibitors, dose response, cell-based, flow cytometry, Ki from IC50 (AID 766)
Details: FPRL1-expressing cells, fluorescent ligand binding competition, binding constant from IC50

Chain of N-formyl peptide receptor 2 (Homo sapiens) (P25090 whole entry, looked up): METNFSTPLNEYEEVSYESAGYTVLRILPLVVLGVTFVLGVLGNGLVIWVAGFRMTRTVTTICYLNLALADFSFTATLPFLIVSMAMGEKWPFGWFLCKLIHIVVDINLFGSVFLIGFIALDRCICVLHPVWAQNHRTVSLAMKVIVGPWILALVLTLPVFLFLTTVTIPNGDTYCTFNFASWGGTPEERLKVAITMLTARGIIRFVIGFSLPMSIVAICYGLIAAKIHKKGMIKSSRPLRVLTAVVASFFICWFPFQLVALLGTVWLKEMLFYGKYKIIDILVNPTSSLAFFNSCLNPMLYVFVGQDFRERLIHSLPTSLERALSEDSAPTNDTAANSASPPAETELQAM

| Ki [µM] | SMILES |
| --- | --- |
| > 30.2 | COc1ccc(-c2cc(C(F)(F)F)nc(N3CCN(c4ccccc4)CC3)n2)cc1OC |
| 6 | COc1ccc(CC(=O)Nc2cc(-c3cn4cccnc4n3)ccc2OC)cc1 |
| > 39.9 | COc1ccc(-c2cn3cccnc3n2)cc1NC(=O)C1CCCC1 |
| 10 | COc1ccc(-c2cc(C(F)(F)F)nc(N3CCN(Cc4ccccc4)CC3)n2)cc1OC |
| > 30.5 | CCOC(=O)N1CCN(c2nc(-c3ccc(OC)c(OC)c3)cc(C(F)(F)F)n2)CC1 |
| > 25.1 | COc1ccc(-c2cc(C(F)(F)F)nc(N3CCN(C(c4ccccc4)c4ccccc4)CC3)n2)cc1OC |
| 4.1 | COc1ccc(-c2cn3cccnc3n2)cc1NC(=O)C1CC1 |
| 6.5 | CCC(=O)Nc1cc(-c2cn3cccnc3n2)ccc1OC |
| > 34.7 | O=C(N1CCN(c2nc(-c3ccccc3)c3ccccc3n2)CC1)C(F)(F)F |
| 2.2 | COc1ccc(-c2cn3cccnc3n2)cc1NC(=O)C(C)C |
